For 15 molecules, TGI and GI50 results are on record in PubChem BioAssay (NCI).

Some test systems named below: CCRF-CEM leukemia; OVCAR-4 ovarian; U251 CNS; 786-0 renal; IGROV1 ovarian; T-47D breast; HS 578T breast; MDA-MB-435; HCC-2998 colon; SNB-75 CNS.
Holding throughout (assay): growth of human tumour cells (NCI), 48 h

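Following 48 hours of exposure in 96-well plates, responses at five concentrations were used to interpolate endpoints linearly. The concentration for 50% growth inhibition is given as GI50. The concentration for full growth arrest is given as TGI.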

As to `OB1OCc2ccccc21`, the TGI was 54.9 µM with CCRF-CEM leukemia; 92.8 µM with OVCAR-4 ovarian; over 100 µM in the test on U251 CNS; over 100 µM in the test on 786-0 renal; over 100 µM in the test with IGROV1 ovarian; over 100 µM with T-47D breast. In addition, the TGI with HS 578T breast and in the test with MDA-MB-435 was over 100 µM throughout.

In the case of `O=S(=O)(CC#CCS(=O)(=O)c1ccccc1)c1ccccc1`, the TGI in the test with HCC-2998 colon was determined as 35.8 µM; with SNB-75 CNS, 5.55 µM; in the test on OVCAR-4 ovarian, 3.71 µM; in the test with U251 CNS, 24.5 µM; in the test with 786-0 renal, 2.24 µM; with IGROV1 ovarian, 2.94 µM. For the same molecule, the results for the TGI with HS 578T breast and in the test with MDA-MB-435 were over 36.5 µM and 3.83 µM, respectively.

Turning to `O=C(Cl)c1cc([N+](=O)[O-])cc([N+](=O)[O-])c1`, the TGI with HCC-2998 colon, in the test on SNB-75 CNS, in the test on CCRF-CEM leukemia, with OVCAR-4 ovarian, in the test with U251 CNS and in the test with 786-0 renal was over 100 µM throughout. In the test on IGROV1 ovarian, this molecule yielded a TGI of over 100 µM.

As to `CN(C)/C=C/c1ccnc2c1C(=O)c1ccccc1C2=O`, the TGI is 22.6 µM in the test on HCC-2998 colon; 16.1 µM in the test with SNB-75 CNS; over 56 µM in the test on CCRF-CEM leukemia; 66 µM with OVCAR-4 ovarian; 49.7 µM in the test with U251 CNS; 73.6 µM in the test with 786-0 renal. The values for the TGI in the test with IGROV1 ovarian, in the test with T-47D breast and in the test with HS 578T breast were 35.2 µM, over 85 µM and 7.06 µM, respectively.

For `COC(=O)C1(C(=O)OC)CC2=C(S(=O)(=O)c3ccccc3)C[C@@H](C#N)[C@H]2C1`, the TGI is 31.2 µM in the test with HCC-2998 colon; over 100 µM in the test on SNB-75 CNS; over 100 µM in the test with CCRF-CEM leukemia; over 100 µM with OVCAR-4 ovarian; over 100 µM in the test with U251 CNS; over 100 µM with 786-0 renal. For the same molecule, the TGI in the test on IGROV1 ovarian and in the test on MDA-MB-435 was over 100 µM each time.

`O=C(CSCC(=O)N/N=C\c1cc(Br)cc(Br)c1O)N/N=C\c1cc(Br)cc(Br)c1O`: the TGI with SNB-75 CNS was over 100 µM; in the test with OVCAR-4 ovarian it was over 100 µM; with U251 CNS it was 22.3 µM; with 786-0 renal, over 100 µM; in the test on IGROV1 ovarian, 66.2 µM; in the test on T-47D breast it was over 100 µM. Besides, the TGI in the test with HS 578T breast and in the test with MDA-MB-435 was over 100 µM each time.

On to `Cc1cccc2ns[s+]c12`, for which the TGI with HCC-2998 colon, in the test with SNB-75 CNS, with CCRF-CEM leukemia, in the test with OVCAR-4 ovarian, in the test on U251 CNS and with IGROV1 ovarian was over 100 µM in each case.

Take `COc1ccc2c(c1)CCC1C2CCC2(C)C1CC[C@@]2(O)CNC(=O)/C=C/c1ccc(O)c(O)c1` (stereo partly specified): the GI50 with SNB-75 CNS is 2.65 µM; with OVCAR-4 ovarian, 3.02 µM; in the test on U251 CNS it was 1.65 µM; in the test with IGROV1 ovarian, 0.937 µM; with T-47D breast, 3.15 µM; in the test with HS 578T breast, 7.62 µM. Moreover, in the test with MDA-MB-435, the GI50 was 2.86 µM. In addition, the TGI is 7.18 µM in the test on SNB-75 CNS; over 100 µM in the test with OVCAR-4 ovarian; 4.41 µM in the test on U251 CNS; 3.37 µM with IGROV1 ovarian; over 100 µM in the test with T-47D breast; over 100 µM in the test on HS 578T breast. The same molecule gave a TGI in the test on MDA-MB-435 of 19.2 µM.

As for `NC(N)=NS(=O)(=O)c1ccc(NC(=O)c2c3ccccc3nc3ccccc23)cc1`, the TGI in the test on HCC-2998 colon, in the test with SNB-75 CNS, with CCRF-CEM leukemia, in the test with OVCAR-4 ovarian, in the test with U251 CNS and in the test with 786-0 renal was over 100 µM each time. Besides, the TGI in the test with IGROV1 ovarian and with MDA-MB-435 was over 100 µM each time.

As for `Clc1ccc(CCn2ccc3ccccc32)c(Cl)c1`, the TGI in the test with HCC-2998 colon, in the test on SNB-75 CNS, in the test on CCRF-CEM leukemia, with OVCAR-4 ovarian, with U251 CNS and in the test on 786-0 renal was over 100 µM each time. In addition, the TGI in the test with IGROV1 ovarian, in the test on HS 578T breast and with MDA-MB-435 was over 100 µM each time.

With `CC1=CC(=O)C[C@]2(C)[C@@H](O)CC(C(C)CO)C[C@@H]12` (stereo partly specified), the TGI in the test with HCC-2998 colon, in the test on SNB-75 CNS, with OVCAR-4 ovarian, in the test on U251 CNS, with 786-0 renal and in the test with IGROV1 ovarian was over 100 µM in each case. Moreover, the TGI in the test with T-47D breast and in the test with MDA-MB-435 was over 100 µM throughout.

Turning to `Nc1cc(N)c2nc(-c3ccccc3)c(Sc3ccc(F)cc3)nc2c1`, the GI50 in the test with SNB-75 CNS was 21.1 µM; with OVCAR-4 ovarian it was 22.9 µM; with U251 CNS, 16.4 µM; with IGROV1 ovarian it was 25 µM; in the test on HS 578T breast it was 27 µM; with MDA-MB-435, 16.3 µM. Further, the TGI in the test with SNB-75 CNS was 47.8 µM; with OVCAR-4 ovarian it was 55.9 µM; with U251 CNS it was 31.7 µM; in the test on IGROV1 ovarian, over 100 µM; in the test on HS 578T breast, 62 µM; in the test on MDA-MB-435, 32.9 µM.

As for `O=C1c2ccccc2C(=O)c2c1c1cc(O)ccc1n2Cc1ccc(Cl)cc1Cl`, the TGI in the test with CCRF-CEM leukemia was 18.9 µM; in the test with OVCAR-4 ovarian it was 4.27 µM; in the test on U251 CNS, 12.2 µM; in the test on 786-0 renal, 8.09 µM; in the test with IGROV1 ovarian, 21.2 µM; in the test with HS 578T breast, over 100 µM. The TGI in the test with MDA-MB-435 was 27.8 µM.

As for `CC(C)(C)OC(=O)NCCNC(=O)OCc1ccccc1`, the TGI in the test on HCC-2998 colon, with SNB-75 CNS, in the test with U251 CNS, in the test with 786-0 renal, in the test with IGROV1 ovarian and with HS 578T breast was over 100 µM in each case. The molecule further came in with a TGI in the test with MDA-MB-435 of over 100 µM.

With `O=c1[nH]/c(=C/c2ccc(OCc3ccccc3)cn2)c(=O)[nH]/c1=C/c1cccnc1`, the TGI with HCC-2998 colon was 3.16 µM; with SNB-75 CNS, 36.8 µM; in the test with OVCAR-4 ovarian it was over 61.5 µM; in the test on U251 CNS it was over 100 µM; with 786-0 renal it was over 100 µM; in the test on T-47D breast it was over 100 µM. In the test on MDA-MB-435, this molecule had a TGI of 0.261 µM.
